Structures can show the parent of a compound that is named as a salt. Where two headings read alike, the source gives them in different places.
System: Acinetobacter baumannii ATCC17961
Experiment: Antimicrobial susceptibility testing: 90% growth inhibitory concentration (IC90) determination, Iso-Sensitest broth
Type: cell-based
Conditions: Acinetobacter baumannii
Experimental: The in vitro antimicrobial activity of the compounds was determined according to the following procedure:
The assay used a 10-points Iso-Sensitest broth medium to measure quantitatively the in vitro activity of the compounds against Acinetobacter baumannii ATCC17978 or ATCC17961.
Stock compounds in DMSO were serially twofold diluted (e.g. range from 10 to 0.02 μM final concentration) in 384 wells microtiter plates and inoculated with 49 μl the bacterial suspension in Iso-Sensitest medium to have a final cell concentration of ˜5×10^(5) CFU/ml in a final volume/well of 50 ul/well. Microtiter plates were incubated at 35±2° C.
Bacterial cell growth was determined with the measurement of optical density at k=600 nm each 20 minutes over a time course of 16 h. Growth inhibition was calculated during the logarithmic growth of the bacterial cells with determination of the concentration inhibiting 50% (IC50) and 90% (IC90) of the growth.
Table 1 provides the 90% growth inhibitory concentrations (IC90) in micromoles per liter of the compounds of present invention obtained against the strain Acinetobacter baumannii ATCC17978 or ATCC17961.

[1] = ATCC17961, 90% growth inhibitory concentration, Acinetobacter baumannii ATCC17961, Iso-Sensitest broth, read-out: ATCC 17961 IC90
[2] = ATCC17961, read-out: ATCC 17961 IC90

Structure (SMILES) | IC90 [1] [nM] | IC90 [2] [nM]
COc1ccc(-c2cnc(C(=O)Nc3ccc(C(=O)N4CC(C(=O)N5CC(CN)C5)C4)c(Cl)c3)n2C)c(F)c1F [Example 66, N-[4-[3-[3-(aminomethyl)azetidine-1-carbonyl]azetidine-1-carbonyl]-3-chloro-phenyl]-5-(2,3-difluoro-4-methoxy-phenyl)-1-methyl-imidazole-2-carboxamide formate] | 140 | –
COc1ccc(-c2cnc(C(=O)Nc3ccc(C(=O)N4CC(C(=O)N5CCNCC5)C4)c(Cl)c3)n2C)c(F)c1F [Example 69, N-[3-chloro-4-[3-(piperazine-1-carbonyl)azetidine-1-carbonyl]phenyl]-5-(2,3-difluoro-4-methoxy-phenyl)-1-methyl-imidazole-2-carboxamide formate] | 120 | –
COc1ccc(-c2cnc(C(=O)Nc3ccc(C(=O)N4CCC(C(=O)N[C@H]5CCNC5)CC4)c(Cl)c3)n2C)c(F)c1F [Example 58, 1-[2-chloro-4-[[5-(2,3-difluoro-4-methoxy-phenyl)-1-methyl-imidazole-2-carbonyl]amino]benzoyl]-N-[(3S)-pyrrolidin-3-yl]piperidine-4-carboxamide formate] | 50 | –
COc1ccc(-c2cnc(C(=O)Nc3ccc(C(=O)N4CCC(NC(=O)[C@@H]5CCNC5)C4)c(Cl)c3)n2C)c(F)c1F (stereo partly drawn) [Example 109, N-[3-chloro-4-[3-[[(3R)-pyrrolidine-3-carbonyl]amino]pyrrolidine-1-carbonyl]phenyl]-5-(2,3-difluoro-4-methoxy-phenyl)-1-methyl-imidazole-2-carboxamide formate] | 150 | –
Cn1c(-c2ccc(OC(F)F)c(F)c2F)cnc1C(=O)Nc1ccc(C(=O)N2CCC(C(=O)NC[C@H]3CCNC3)CC2)c(Cl)c1 [Example 48, 1-[2-chloro-4-[[5-[4-(difluoromethoxy)-2,3-difluoro-phenyl]-1-methyl-imidazole-2-carbonyl]amino]benzoyl]-N-[[(3S)-pyrrolidin-3-yl]methyl]piperidine-4-carboxamide trifluoroacetate] | 40 | –
COc1ccc(-c2cnc(C(=O)Nc3ccc(C(=O)N4CCC(NC(=O)CC5CCNC5)CC4)c(Cl)c3)n2C)c(F)c1F (centres unmarked) [Example 11, N-[3-Chloro-4-[4-[(2-pyrrolidin-3-ylacetyl)amino]piperidine-1-carbonyl]phenyl]-5-(2,3-difluoro-4-methoxy-phenyl)-1-methyl-imidazole-2-carboxamide formate] | – | 70
COc1ccc(-c2cnc(C(=O)Nc3ccc(C(=O)N4CC5(CC(C(=O)N6CCN[C@@H](CO)C6)C5)C4)c(Cl)c3)n2C)c(F)c1F [Example 41, N-[3-chloro-4-[6-[(3R)-3-(hydroxymethyl)piperazine-1-carbonyl]-2-azaspiro[3,3]heptane-2-carbonyl]phenyl]-5-(2,3-difluoro-4-methoxy-phenyl)-1-methyl-imidazole-2-carboxamide] | 140 | –
COc1ccc(-c2cnc(C(=O)Nc3ccc(C(=O)N4CCN(C(=O)CCC#N)CC4)c(Cl)c3)n2C)c(F)c1F [Example 134, N-[3-chloro-4-[4-(3-cyanopropanoyl)piperazine-1-carbonyl]phenyl]-5-(2,3-difluoro-4-methoxy-phenyl)-1-methyl-imidazole-2-carboxamide] | 100 | –
COc1ccc(-c2cnc(C(=O)Nc3ccc(C(=O)N4CC(OCCN)C4)c(Cl)c3)n2C)c(F)c1F [Example 18, N-[4-[3-(2-aminoethoxy)azetidine-1-carbonyl]-3-chloro-phenyl]-5-(2,3-difluoro-4-methoxy-phenyl)-1-methyl-imidazole-2-carboxamide formate] | 70 | –
COc1ccc(-c2cnc(C(=O)Nc3ccc(C(=O)N4CCC(C(=O)N[C@@H](C)CN)CC4)c(Cl)c3)n2C)c(F)c1F [Example 28, N-[(1S)-2-Amino-1-methyl-ethyl]-1-[2-chloro-4-[[5-(2,3-difluoro-4-methoxy-phenyl)-1-methyl-imidazole-2-carbonyl]amino]benzoyl]piperidine-4-carboxamide trifluoroacetate] | – | 170

Continued, in another order:

IC90 [1] [nM] | Structure (SMILES) | IC90 [2] [nM]
90 | CN(C)CC(=O)N1CCN(C(=O)c2ccc(NC(=O)c3ncc(-c4ccc(OCF)cc4F)n3C)cc2Cl)CC1 [Example 222, N-(3-chloro-4-(4-(dimethylglycyl)piperazine-1-carbonyl)phenyl)-5-(2-fluoro-4-(fluoromethoxy)phenyl)-1-methyl-1H-imidazole-2-carboxamide] | –
40 | Cn1c(-c2ccc(OCF)c(F)c2F)cnc1C(=O)Nc1ccc(C(=O)N2CCN(C(=O)C[C@@H]3CCNC3)CC2)c(Cl)c1 [Example 158, N-[3-chloro-4-[4-[2-[(3S)-pyrrolidin-3-yl]acetyl]piperazine-1-carbonyl]phenyl]-5-[2,3-difluoro-4-(fluoromethoxy)phenyl]-1-methyl-imidazole-2-carboxamide formate] | –
180 | COc1ccc(-c2cnc(C(=O)Nc3ccc(C(=O)N4CCN(C(=O)[C@@H]5CCNC[C@@H]5O)CC4)c(C)c3)n2C)c(F)c1F [Example 234, 5-(2,3-difluoro-4-methoxy-phenyl)-N-[4-[4-[(3R,4R)-3-hydroxypiperidine-4-carbonyl]piperazine-1-carbonyl]-3-methyl-phenyl]-1-methyl-imidazole-2-carboxamide formate] | –
160 | COc1ccc(-c2cnc(C(=O)Nc3ccc(C(=O)N4CCN(C(=O)[C@H]5CCNC[C@@H]5O)CC4)c(Cl)c3)n2C)c(F)c1F [Example 231, N-[3-chloro-4-[4-[(3R,4S)-3-hydroxypiperidine-4-carbonyl]piperazine-1-carbonyl]phenyl]-5-(2,3-difluoro-4-methoxy-phenyl)-1-methyl-imidazole-2-carboxamide formate] | –
50 | COc1ccc(-c2cnc(C(=O)Nc3ccc(C(=O)N4CCN(C(=O)C[C@@H]5CCNC5)CC4)c(Cl)c3)n2C)c(Cl)c1F [Example 167, 5-(2-chloro-3-fluoro-4-methoxy-phenyl)-N-[3-chloro-4-[4-[2-[(3S)-pyrrolidin-3-yl]acetyl]piperazine-1-carbonyl]phenyl]-1-methyl-imidazole-2-carboxamide formate] | –
30 | Cn1c(-c2ccc(OC(F)F)c(F)c2F)cnc1C(=O)Nc1ccc(C(=O)N2CCN(C(=O)C3CCNCC3)CC2)c(Cl)c1 [Example 249, N-[3-chloro-4-[4-(piperidine-4-carbonyl)piperazine-1-carbonyl]phenyl]-5-[4-(difluoromethoxy)-2,3-difluoro-phenyl]-1-methyl-imidazole-2-carboxamide formate] | –
90 | COc1ccc(-c2cnc(C(=O)Nc3ccc(C(=O)N4CCC(NC(=O)CN(C)C)CC4)c(Cl)c3)n2C)c(F)c1F [Example 195, N-[3-chloro-4-[4-[[2-(dimethylamino)acetyl]amino]piperidine-1-carbonyl]phenyl]-5-(2,3-difluoro-4-methoxy-phenyl)-1-methyl-imidazole-2-carboxamide] | –
90 | COc1ccc(-c2cnc(C(=O)Nc3ccc(C(=O)N4CCN(C(=O)[C@H]5CCNC[C@H]5O)CC4)c(Cl)c3)n2C)c(F)c1F [Example 229, N-[3-chloro-4-[4-[(3S,4S)-3-hydroxypiperidine-4-carbonyl]piperazine-1-carbonyl]phenyl]-5-(2,3-difluoro-4-methoxy-phenyl)-1-methyl-imidazole-2-carboxamide] | –
40 | CN(C)CC(=O)N1CCN(C(=O)c2ccc(NC(=O)c3ncc(-c4ccc(OCF)c(F)c4F)n3C)cc2Cl)CC1 [Example 220, N-(3-chloro-4-(4-(dimethylglycyl)piperazine-1-carbonyl)phenyl)-5-(2,3-difluoro-4-(fluoromethoxy)phenyl)-1-methyl-1H-imidazole-2-carboxamide formate] | –
80 | COc1ccc(-c2cnc(C(=O)Nc3ccc(C(=O)N4CCN(C(=O)[C@@H]5CCN5)CC4)c(Cl)c3)n2C)c(F)c1F [Example 150, N-[4-[4-[(2S)-azetidine-2-carbonyl]piperazine-1-carbonyl]-3-chloro-phenyl]-5-(2,3-difluoro-4-methoxy-phenyl)-1-methyl-imidazole-2-carboxamide formate] | –
50 | COc1ccc(-c2cnc(C(=O)Nc3ccc(C(=O)N4CCN(C(=O)C5(O)CCNCC5)CC4)c(Cl)c3)n2C)c(F)c1F [Example 166, N-[3-chloro-4-[4-(4-hydroxypiperidine-4-carbonyl)piperazine-1-carbonyl]phenyl]-5-(2,3-difluoro-4-methoxy-phenyl)-1-methyl-imidazole-2-carboxamide formate] | –
80 | CCOc1ccc(-c2cnc(C(=O)Nc3ccc(C(=O)N4CCN(C(=O)CC5(O)CCNCC5)CC4)c(Cl)c3)n2C)c(F)c1F [Example 183, N-[3-chloro-4-[4-[2-(4-hydroxy-4-piperidyl)acetyl]piperazine-1-carbonyl]phenyl]-5-(4-ethoxy-2,3-difluoro-phenyl)-1-methyl-imidazole-2-carboxamide formate] | –
130 | CC[C@@]1(O)CN[C@H](C(=O)N2CCN(C(=O)c3ccc(NC(=O)c4ncc(-c5ccc(OCC#N)c(F)c5F)n4C)cc3C)CC2)C1 [Example 226, 5-[4-(cyanomethoxy)-2,3-difluoro-phenyl]-N-[4-[4-[(2S,4S)-4-ethyl-4-hydroxy-pyrrolidine-2-carbonyl]piperazine-1-carbonyl]-3-methyl-phenyl]-1-methyl-imidazole-2-carboxamide formate] | –

— patent publication US20220396565A1 (Hoffmann-La Roche Inc., priority 2020, published 2022)
